Laboratory results taken from patent US7041681B2, “Compounds as opioid receptor modulators” (Janssen Pharmaceutica N.V., priority 2002, dated 2006).

What was measured:
mu opioid receptor = target: T1, mu opioid receptor (Rattus norvegicus, UniProt P33535); assay: Rat Brain mu Opioid Receptor Binding Assay; details: rat forebrain membranes, ~0.8 nM [3H]DAMGO, 25° C., 2.5 h; read-out: μ-opioid binding (Ki)
T1 construct: from tissue; host or cells: rat forebrain homogenate (Wistar rat)
Protocol: (§1) Male, Wistar rats (150–250 g, VAF, Charles River, Kingston, N.Y.) are killed by cervical dislocation, and their brains removed and placed immediately in ice cold Tris HCl buffer (50 mM, pH 7.4). The forebrains are separated from the remainder of the brain by a coronal transection, beginning dorsally at the colliculi and passing ventrally through the midbrain-pontine junction. After dissection, the forebrains are homogenized in Tris buffer in a Teflon®-glass homogenizer. The homogenize is diluted to a concentration of 1 g of forebrain tissue per 80 mL Tris and centrifuged at 39,000×g for 10 min. The pellet is resuspended in the same volume of Tris buffer containing 5 mM MgCl2 with several brief pulses from a Polytron homogenizer. This particulate preparation is used for the mu-opioid binding assays. Following incubation with the mu selective peptide ligand ˜0.8 nM [^3H]DAMGO at 25° C. for 2.5 h in a 96-well plate with total 1 ml, the plate contents are filtered through Wallac filtermat B sheets on a Tomtec 96-well harvester. The filters are rinsed three times with 2 mL of 10 mM HEPES (pH7.4), and dried in a microwave oven 1:45 min twice. To each sample area 2×40 μl of Betaplate Scint scintillation fluid (LKB) is added and analyzed on a LKB (Wallac) 1205 BetaPlate liquid scintillation counter.
(§2) The data are used to calculate either the % inhibition compared to control binding (when only a single concentration of test compound is evaluated) or a Ki value (when a range of concentrations is tested). % inhibition is calculated as: [(total dpm-test compound dpm dpm)/(total dpm-nonspecific dpm)]*100. Kd and Ki values were calculated using GraphPad PRISM data analysis program.

delta opioid receptor = target: T2, delta opioid receptor (Rattus norvegicus, UniProt P33533); assay: Rat Brain Delta Opioid Receptor Binding Assay; details: rat forebrain membranes, ~4 nM [3H]DPDPE, 25° C., 2.5 h; read-out: δ-opioid binding (Ki)
T2 construct: from tissue; host or cells: rat forebrain homogenate (Wistar rat)
T2 sequence (P33533 whole entry): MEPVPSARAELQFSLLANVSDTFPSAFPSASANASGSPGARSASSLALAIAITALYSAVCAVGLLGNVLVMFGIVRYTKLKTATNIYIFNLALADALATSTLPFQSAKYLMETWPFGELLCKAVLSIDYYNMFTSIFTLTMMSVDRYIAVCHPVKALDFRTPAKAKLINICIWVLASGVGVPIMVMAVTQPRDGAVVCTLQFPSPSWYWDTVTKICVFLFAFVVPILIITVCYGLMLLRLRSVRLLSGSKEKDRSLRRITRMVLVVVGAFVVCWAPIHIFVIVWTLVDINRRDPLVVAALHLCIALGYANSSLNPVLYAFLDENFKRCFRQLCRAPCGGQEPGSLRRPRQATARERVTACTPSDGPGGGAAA
Protocol: as §1, with “delta opioid” for “mu-opioid”, “delta” for “mu”, “˜4” for “˜0.8”, “[^3H]DPDPE” for “[^3H]DAMGO”, “total volume of” for “total”
as §2

T1 sequence (P33535 whole entry): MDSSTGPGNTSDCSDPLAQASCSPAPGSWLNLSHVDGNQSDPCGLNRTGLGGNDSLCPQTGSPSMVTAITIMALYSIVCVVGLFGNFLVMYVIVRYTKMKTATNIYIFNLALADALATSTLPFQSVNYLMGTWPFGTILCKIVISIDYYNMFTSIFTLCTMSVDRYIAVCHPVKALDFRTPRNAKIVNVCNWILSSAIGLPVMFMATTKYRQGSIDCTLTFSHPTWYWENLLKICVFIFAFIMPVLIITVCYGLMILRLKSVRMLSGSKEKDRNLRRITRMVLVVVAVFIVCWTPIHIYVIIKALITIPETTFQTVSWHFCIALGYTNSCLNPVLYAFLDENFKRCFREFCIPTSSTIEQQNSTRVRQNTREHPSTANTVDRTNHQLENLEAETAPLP

## CC(N)(Cc1ccc(OCc2ccccc2)cc1)C(=O)N1CCCCC1c1nc(-c2ccccc2)c[nH]1 (stereo not shown) [Cmpd 26]
Mu opioid receptor
  Ki: 87 nM
Delta opioid receptor
  Ki: 628 nM

## Cc1cc(C(N)=O)cc(C)c1CC(N)C(=O)N1CCCCC1c1nc(-c2ccccc2)c[nH]1 (stereo not shown) [Cmpd 6]
Mu opioid receptor
  Ki: 0.13 nM
Delta opioid receptor
  Ki: 13.9 nM

## Cc1[nH]c([C@@H]2Cc3ccccc3CN2C(=O)[C@@H](N)Cc2ccc(C(N)=O)cc2)nc1-c1ccccc1 [Cmpd 118]
Mu opioid receptor
  Ki: 23.1 nM
Delta opioid receptor
  Ki: 0.73 nM

## CN[C@@H](Cc1ccc(O)cc1)C(=O)N1Cc2ccccc2C[C@H]1c1nc(-c2ccccc2)c(C)[nH]1 [Cmpd 157]
Mu opioid receptor
  Ki: 30 nM
Delta opioid receptor
  Ki: 0.57 nM

## COc1ccc(C[C@H](N)C(=O)N2Cc3ccccc3C[C@H]2c2nc(-c3ccccc3)c(C)[nH]2)cc1 [Cmpd 156]
Mu opioid receptor
  Ki: 179 nM
Delta opioid receptor
  Ki: 28 nM

## N[C@@H](Cc1ccc(O)cc1)C(=O)N1CCCC[C@H]1c1cccc(-c2ccccc2)c1 [Cmpd 32]
Mu opioid receptor
  Ki: 541 nM
Delta opioid receptor
  Ki: 5900 nM

## NCc1ccc(C[C@H](N)C(=O)N2CCCC[C@H]2c2nc(-c3ccccc3)c[nH]2)cc1 [Cmpd 18]
Mu opioid receptor
  Ki: 409 nM
Delta opioid receptor
  Ki: 7520 nM

## Nc1ccc(CC(N)C(=O)N2CCCCC2c2nc(-c3ccccc3)c[nH]2)cc1 (stereo not shown) [Cmpd 30]
Mu opioid receptor
  Ki: 57.2 nM
Delta opioid receptor
  Ki: 1020 nM

## CN1CCN(C(=O)c2ccc(C[C@H](N)C(=O)N3CCCC[C@H]3c3nc(-c4ccccc4)c[nH]3)cc2)CC1 [Cmpd 3]
Mu opioid receptor
  Ki: 10000 nM
Delta opioid receptor
  Ki: 10000 nM

## N#Cc1ccc(C[C@H](N)C(=O)N2CCCC[C@H]2c2nc(-c3ccccc3)c[nH]2)cc1 [Cmpd 35]
Mu opioid receptor
  Ki: 869 nM
Delta opioid receptor
  Ki: 476 nM

## CN[C@@H](Cc1c(C)cc(O)cc1C)C(=O)N1Cc2ccccc2C[C@H]1c1nc(-c2ccccc2)c[nH]1 [Cmpd 127]
Mu opioid receptor
  Ki: 7.1 nM
Delta opioid receptor
  Ki: 0.4 nM

## COc1cc(C)c(CC(N)C(=O)N2Cc3ccccc3CC2c2nc(-c3ccccc3)c[nH]2)c(C)c1 (stereo not shown) [Cmpd 147]
Mu opioid receptor
  Ki: 150 nM
Delta opioid receptor
  Ki: 43 nM

## CC(=O)c1ccc(C[C@H](N)C(=O)N2Cc3ccccc3C[C@H]2c2nc(-c3ccccc3)c[nH]2)cc1 [Cmpd 110]
Mu opioid receptor
  Ki: 413 nM
Delta opioid receptor
  Ki: 30.4 nM

## CNC(Cc1ccc(O)cc1)C(=O)N1Cc2ccccc2CC1c1nc(-c2ccccc2)c(C)[nH]1 (stereo not shown) [Cmpd 155]
Mu opioid receptor
  Ki: 23.2 nM
Delta opioid receptor
  Ki: 0.44 nM

## CNC(Cc1c(C)cc(OC)cc1C)C(=O)N1Cc2ccccc2CC1c1nc(-c2ccccc2)c[nH]1 (stereo not shown) [Cmpd 146]
Mu opioid receptor
  Ki: 817 nM
Delta opioid receptor
  Ki: 668 nM

## CCNC(=O)c1ccc(C[C@H](N)C(=O)N2CCCC[C@H]2c2nc(-c3ccccc3)c[nH]2)cc1 [Cmpd 1]
Mu opioid receptor
  Ki: 0.15 nM
Delta opioid receptor
  Ki: 20.9 nM

## NC(Cc1ccc(C(=O)O)cc1)C(=O)N1Cc2ccccc2CC1c1nc(-c2ccccc2)c[nH]1 (stereo not shown) [Cmpd 106]
Mu opioid receptor
  Ki: 5780 nM
Delta opioid receptor
  Ki: 5200 nM

## Cc1cc(OC(=O)C(C)(C)C)cc(C)c1C[C@H](N)C(=O)N1Cc2ccccc2C[C@H]1c1nc(-c2ccccc2)c[nH]1 [Cmpd 116]
Mu opioid receptor
  Ki: 9.6 nM
Delta opioid receptor
  Ki: 3.5 nM

## Cc1cc(O)cc(C)c1C[C@H](N)C(=O)N1Cc2ccccc2C[C@H]1c1nc(-c2ccccc2)c(C)[nH]1 [Cmpd 149]
Mu opioid receptor
  Ki: 3 nM
Delta opioid receptor
  Ki: 0.8 nM

## NC(=O)c1cccc(CC(N)C(=O)N2CCCCC2c2nc(-c3ccccc3)c[nH]2)c1 (stereo not shown) [Cmpd 7]
Mu opioid receptor
  Ki: 88.3 nM
Delta opioid receptor
  Ki: 6070 nM

## N[C@@H](Cc1ccc(O)cc1)C(=O)N1CCCC[C@@H]1c1cccc(-c2ccccc2)c1 [Cmpd 31]
Mu opioid receptor
  Ki: 565 nM
Delta opioid receptor
  Ki: 10000 nM

## CN(C)C(=O)c1ccc(C[C@H](N)C(=O)N2Cc3ccccc3C[C@H]2c2nc(-c3ccccc3)c[nH]2)cc1 [Cmpd 103]
Mu opioid receptor
  Ki: 900 nM
Delta opioid receptor
  Ki: 578 nM

## CN[C@@H](Cc1ccc(OC(=O)C(C)(C)C)cc1)C(=O)N1Cc2ccccc2C[C@H]1c1nc(-c2ccccc2)c[nH]1 [Cmpd 128]
Mu opioid receptor
  Ki: 213 nM
Delta opioid receptor
  Ki: 5.2 nM

## Cc1[nH]c([C@@H]2Cc3ccccc3CN2C(=O)[C@@H](N)Cc2ccc(N)cc2)nc1-c1ccccc1 [Cmpd 142]
Mu opioid receptor
  Ki: 857 nM
Delta opioid receptor
  Ki: 93 nM

## N[C@@H](Cc1ccc(C(=O)O)cc1)C(=O)N1CCCC[C@H]1c1nc(-c2ccccc2)c[nH]1 [Cmpd 9]
Mu opioid receptor
  Ki: 26.8 nM
Delta opioid receptor
  Ki: 606 nM

## Cc1cc(O)cc(C)c1C[C@H](N)C(=O)N1CCCC[C@H]1c1nc(-c2ccccc2)c(C)[nH]1 [Cmpd 29]
Mu opioid receptor
  Ki: 0.09 nM
Delta opioid receptor
  Ki: 0.51 nM

## N[C@@H](Cc1ccc(O)cc1)C(=O)N1CCCC[C@H]1c1nc(-c2ccccc2)no1 [Cmpd 20]
Mu opioid receptor
  Ki: 231 nM
Delta opioid receptor
  Ki: 10000 nM

## NC(Cc1ccc(C(=O)NCCO)cc1)C(=O)N1CCCCC1c1nc(-c2ccccc2)c[nH]1 (stereo not shown) [Cmpd 14]
Mu opioid receptor
  Ki: 9.3 nM
Delta opioid receptor
  Ki: 5140 nM

## N#Cc1ccc(CC(N)C(=O)N2Cc3ccccc3CC2c2nc(-c3ccccc3)c[nH]2)cc1 (stereo not shown) [Cmpd 160]
Mu opioid receptor
  Ki: 1340 nM
Delta opioid receptor
  Ki: 752 nM

## CNC(=O)c1ccc(C[C@H](N)C(=O)N2CCCC[C@H]2c2nc(-c3ccccc3)c[nH]2)cc1 [Cmpd 21]
Mu opioid receptor
  Ki: 0.22 nM
Delta opioid receptor
  Ki: 33.9 nM

## NC(=O)c1ccc(CC(N)C(=O)N2Cc3ccccc3CC2c2nc(-c3ccccc3)c[nH]2)cc1 (stereo not shown) [Cmpd 115]
Mu opioid receptor
  Ki: 23.2 nM
Delta opioid receptor
  Ki: 1.3 nM

## N[C@@H](Cc1ccc(O)c([N+](=O)[O-])c1)C(=O)N1Cc2ccccc2C[C@H]1c1nc(-c2ccccc2)c[nH]1 [Cmpd 129]
Mu opioid receptor
  Ki: 25700 nM
Delta opioid receptor
  Ki: 50000 nM

## NC(Cc1ccc(C(=O)NCCO)cc1)C(=O)N1Cc2ccccc2CC1c1nc(-c2ccccc2)c[nH]1 (stereo not shown) [Cmpd 112]
Mu opioid receptor
  Ki: 92.3 nM
Delta opioid receptor
  Ki: 43.7 nM

## CC(=O)c1ccc(C[C@H](N)C(=O)N2CCCC[C@H]2c2nc(-c3ccccc3)c[nH]2)cc1 [Cmpd 10]
Mu opioid receptor
  Ki: 23.6 nM
Delta opioid receptor
  Ki: 933 nM

## COc1ccc(CC(N)C(=O)N2Cc3ccccc3CC2c2nc(-c3ccccc3)c(C)[nH]2)cc1 (stereo not shown) [Cmpd 154]
Mu opioid receptor
  Ki: 10000 nM
Delta opioid receptor
  Ki: 10000 nM

## CC(=O)Nc1ccc(C[C@H](N)C(=O)N2Cc3ccccc3C[C@H]2c2nc(-c3ccccc3)c(C)[nH]2)cc1 [Cmpd 141]
Mu opioid receptor
  Ki: 207 nM
Delta opioid receptor
  Ki: 34 nM

## CC(N)(Cc1ccc(O)cc1)C(=O)N1Cc2ccccc2CC1c1nc(-c2ccccc2)c[nH]1 (stereo not shown) [Cmpd 121]
Mu opioid receptor
  Ki: 38 nM
Delta opioid receptor
  Ki: 1.32 nM

## Cc1cc(O)cc(C)c1C[C@H](N)C(=O)N1Cc2ccccc2C[C@H]1c1nc(-c2ccccc2)c(Cl)[nH]1 [Cmpd 133]
Mu opioid receptor
  Ki: 0.18 nM
Delta opioid receptor
  Ki: 0.12 nM

## Cc1[nH]c([C@@H]2Cc3ccccc3CN2C(=O)[C@@H](N)Cc2ccc([N+](=O)[O-])cc2)nc1-c1ccccc1 [Cmpd 120]
Mu opioid receptor
  Ki: 1350 nM
Delta opioid receptor
  Ki: 674 nM

## CCN[C@@H](Cc1ccc(O)cc1)C(=O)N1Cc2ccccc2C[C@H]1c1nc(-c2ccccc2)c[nH]1 [Cmpd 137]
Mu opioid receptor
  Ki: 368 nM
Delta opioid receptor
  Ki: 3.89 nM

## Cc1cc(O)cc(C)c1CC(N)C(=O)N1CCCCC1c1nc(-c2ccccc2)no1 (stereo not shown) [Cmpd 19]
Mu opioid receptor
  Ki: 0.14 nM
Delta opioid receptor
  Ki: 46.3 nM

## Cc1cc(O)cc(C)c1C[C@H](N)C(=O)N1Cc2ccccc2C[C@H]1c1nc(-c2ccccc2)c(Br)[nH]1 [Cmpd 132]
Mu opioid receptor
  Ki: 0.17 nM
Delta opioid receptor
  Ki: 0.1 nM

## Cc1[nH]c([C@@H]2Cc3ccccc3CN2C(=O)[C@@H](N)Cc2ccc(F)cc2)nc1-c1ccccc1 [Cmpd 143]
Mu opioid receptor
  Ki: 12800 nM
Delta opioid receptor
  Ki: 687 nM

## N[C@@H](Cc1cc(F)c(O)c(F)c1)C(=O)N1Cc2ccccc2C[C@H]1c1nc(-c2ccccc2)c[nH]1 [Cmpd 109]
Mu opioid receptor
  Ki: 167 nM
Delta opioid receptor
  Ki: 12.6 nM

## Cc1cc(O)cc(C)c1C[C@H](N)C(=O)N1CCCC[C@@H]1c1nc(-c2ccccc2)c[nH]1 [Cmpd 158]
Mu opioid receptor
  Ki: 0.15 nM
Delta opioid receptor
  Ki: 5.43 nM

## CC(N)(Cc1ccc(O)cc1)C(=O)N1CCCCC1c1nc(-c2ccccc2)c[nH]1 (stereo not shown) [Cmpd 25]
Mu opioid receptor
  Ki: 1.69 nM
Delta opioid receptor
  Ki: 107 nM

## CN[C@@H](Cc1c(C)cc(OC)cc1C)C(=O)N1CCCC[C@H]1c1nc(-c2ccccc2)c[nH]1 [Cmpd 33]
Mu opioid receptor
  Ki: 42.9 nM
Delta opioid receptor
  Ki: 273 nM

## CNC(Cc1ccc(O)cc1)C(=O)N1Cc2ccccc2CC1c1nc(-c2ccccc2)c[nH]1 (stereo not shown) [Cmpd 145]
Mu opioid receptor
  Ki: 59.1 nM
Delta opioid receptor
  Ki: 1.18 nM

## O=C(C(Cc1ccc(O)cc1)NCc1ccccc1)N1Cc2ccccc2CC1c1nc(-c2ccccc2)c[nH]1 (stereo not shown) [Cmpd 135]
Mu opioid receptor
  Ki: 10000 nM
Delta opioid receptor
  Ki: 185 nM

## N[C@@H](Cc1ccc(C(=O)Nc2ccccc2)cc1)C(=O)N1CCCC[C@H]1c1nc(-c2ccccc2)c[nH]1 [Cmpd 13]
Mu opioid receptor
  Ki: 27.7 nM
Delta opioid receptor
  Ki: 656 nM
